The values that follow come from patent publication US11111233B2, “Amino pyrimidine compound for inhibiting protein tyrosine kinase activity” (Shenzhen TargetRx, Inc., priority 2016, dated 2021).

Read-outs that look alike come from different tables or passages of the source. Where only a bound is given, the exact number is not on record here.

Test [1] has as its system lung cancer cells HCC827 (Del19). In words: Cytotoxicity test (MTS cell viability), HCC827. The format is cell-based. Particulars: Homo sapiens.
The target in another test is EGFR [L858R/T790M] (Homo sapiens (Human), UniProt P00533, L858R/T790M). Description: Kinase inhibition assay (HTRF), EGFR [L858R/T790M]. Format: biochemical. Particulars: HTRF Kinase TK kit, 10 min pre-incubation, 20 min reaction; read-out: EGFR(L858R/T790M) IC50. On the technique in general: Time-resolved FRET reads energy transfer from a long-lived donor to a nearby acceptor.

The next test addresses WT EGFR (Homo sapiens (Human), UniProt P00533). In words: Kinase inhibition assay (HTRF), WT EGFR. The format is biochemical. Particulars: HTRF Kinase TK kit, 10 min pre-incubation, 20 min reaction.
In test [2] the test system is Skin cancer cell line A431 (WT). Description: Cytotoxicity test (MTS cell viability), A431. The format is cell-based. Particulars: Homo sapiens, A-431; MTS, 72 hours; read-out: A431 (WT) IC50.
[3] abbreviates: HCC827, MTS, 72 hours, read-out: HCC827 (Del19) IC50.
[4] abbreviates: HCC827, 72 h, read-out: HCC827 (Del19) IC50(nM).

WT EGFR, sequence (P00533 25-1210): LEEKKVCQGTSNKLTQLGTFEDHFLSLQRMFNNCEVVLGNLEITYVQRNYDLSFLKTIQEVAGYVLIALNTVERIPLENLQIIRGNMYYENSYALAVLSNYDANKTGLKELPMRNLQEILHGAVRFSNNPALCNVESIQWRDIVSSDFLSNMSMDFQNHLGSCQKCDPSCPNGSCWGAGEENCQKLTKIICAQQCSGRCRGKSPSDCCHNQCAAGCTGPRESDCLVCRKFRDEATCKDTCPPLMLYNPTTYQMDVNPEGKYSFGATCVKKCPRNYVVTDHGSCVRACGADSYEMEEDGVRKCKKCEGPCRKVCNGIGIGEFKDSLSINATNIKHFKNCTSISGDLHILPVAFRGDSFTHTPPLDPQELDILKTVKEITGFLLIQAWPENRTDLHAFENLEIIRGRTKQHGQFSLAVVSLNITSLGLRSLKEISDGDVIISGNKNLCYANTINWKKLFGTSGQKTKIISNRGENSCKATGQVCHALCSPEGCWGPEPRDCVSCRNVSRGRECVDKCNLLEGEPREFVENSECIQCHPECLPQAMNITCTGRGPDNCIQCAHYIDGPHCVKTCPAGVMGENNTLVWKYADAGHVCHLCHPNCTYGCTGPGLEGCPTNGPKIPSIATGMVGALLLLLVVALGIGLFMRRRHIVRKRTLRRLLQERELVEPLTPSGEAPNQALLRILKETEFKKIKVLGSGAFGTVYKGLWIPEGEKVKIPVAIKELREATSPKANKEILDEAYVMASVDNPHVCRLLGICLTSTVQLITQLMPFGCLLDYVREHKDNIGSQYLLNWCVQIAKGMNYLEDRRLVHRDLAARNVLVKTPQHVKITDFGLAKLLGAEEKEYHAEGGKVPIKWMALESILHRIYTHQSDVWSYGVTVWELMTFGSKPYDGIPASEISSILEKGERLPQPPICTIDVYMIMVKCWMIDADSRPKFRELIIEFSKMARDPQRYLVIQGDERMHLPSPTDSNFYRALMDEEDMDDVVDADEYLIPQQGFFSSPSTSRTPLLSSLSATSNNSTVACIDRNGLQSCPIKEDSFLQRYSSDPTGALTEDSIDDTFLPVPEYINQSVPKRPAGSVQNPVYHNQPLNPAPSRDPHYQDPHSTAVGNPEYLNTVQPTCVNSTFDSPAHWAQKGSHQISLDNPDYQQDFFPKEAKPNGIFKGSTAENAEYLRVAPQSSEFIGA
EGFR [L858R/T790M], sequence (P00533 25-1210 T790M/L858R): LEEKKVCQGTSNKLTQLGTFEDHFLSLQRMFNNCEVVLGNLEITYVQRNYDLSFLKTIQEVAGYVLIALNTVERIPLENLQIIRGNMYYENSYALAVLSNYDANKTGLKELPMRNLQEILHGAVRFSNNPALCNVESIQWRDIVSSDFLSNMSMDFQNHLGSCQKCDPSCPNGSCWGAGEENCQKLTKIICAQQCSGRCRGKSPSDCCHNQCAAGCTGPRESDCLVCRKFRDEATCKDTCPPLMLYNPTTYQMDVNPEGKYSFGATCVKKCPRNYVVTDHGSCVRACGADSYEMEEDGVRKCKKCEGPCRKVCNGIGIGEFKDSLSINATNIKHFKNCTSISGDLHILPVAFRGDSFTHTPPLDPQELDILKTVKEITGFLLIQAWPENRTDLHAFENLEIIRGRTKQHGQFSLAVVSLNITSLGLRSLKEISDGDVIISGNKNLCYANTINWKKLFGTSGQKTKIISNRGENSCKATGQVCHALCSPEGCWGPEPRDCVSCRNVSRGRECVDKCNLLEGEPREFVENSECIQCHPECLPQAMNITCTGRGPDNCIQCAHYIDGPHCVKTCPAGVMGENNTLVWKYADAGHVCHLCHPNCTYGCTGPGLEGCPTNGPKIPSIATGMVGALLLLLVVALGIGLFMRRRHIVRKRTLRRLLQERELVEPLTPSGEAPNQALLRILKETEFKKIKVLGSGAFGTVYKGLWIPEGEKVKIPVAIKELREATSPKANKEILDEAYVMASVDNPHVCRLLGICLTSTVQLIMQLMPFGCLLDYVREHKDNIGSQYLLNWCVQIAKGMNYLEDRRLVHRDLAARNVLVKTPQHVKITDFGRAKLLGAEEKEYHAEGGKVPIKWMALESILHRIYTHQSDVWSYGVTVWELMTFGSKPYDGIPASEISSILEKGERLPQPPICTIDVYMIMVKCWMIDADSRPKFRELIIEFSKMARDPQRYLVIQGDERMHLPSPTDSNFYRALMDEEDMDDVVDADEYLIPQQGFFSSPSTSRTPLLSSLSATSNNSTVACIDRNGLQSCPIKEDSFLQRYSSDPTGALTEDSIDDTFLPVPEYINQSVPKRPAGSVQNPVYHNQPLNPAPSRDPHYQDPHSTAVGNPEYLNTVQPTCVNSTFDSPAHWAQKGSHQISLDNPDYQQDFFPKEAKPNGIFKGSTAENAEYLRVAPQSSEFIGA

For the compound `C=CC(=O)Nc1cc(Nc2nccc(-c3cc(F)c4nn(C)c(C(C)C)c4c3)n2)c(OC)cc1N(C)CCN(C)C` [Example 41, N-(2-((2-(dimethylamino)ethyl)(methyl)amino)-5-((4-(7-fluoro-3-isopropyl-2-methyl-2H-indazole-5-yl)pyrimidin-2-yl)amino)-4-methoxyphenyl)acrylamide], the IC50 in test [1] (setting [3]) is below 10 nM; on EGFR [L858R/T790M] it was below 1 nM; at WT EGFR, below 1 nM; in test [2] it was 100 to 400 nM.

For the compound `C=CC(=O)Nc1cc(Nc2nccc(-c3ccc4nn(C)c(C(C)C)c4c3)n2)c(OC)cc1N(C)CCN(C)C` [Example 42, N-(2-((2-(dimethylamino)ethyl)(methyl)amino)-5-((4-(3-isopropyl-2-methyl-2H-indazole-5-yl)pyrimidin-2-yl)amino)-4-methoxyphenyl)acrylamide], the IC50 was below 10 nM in test [1] (setting [3]), below 1 nM on EGFR [L858R/T790M], below 1 nM on WT EGFR and 100 to 400 nM in test [2].

As for `C=CC(=O)Nc1cc(Nc2nccc(-c3ccc4nccn4n3)n2)c(OC)cc1N(C)CCN(C)C` [Example 43, N-(2-((2-(dimethylamino)ethyl)(methyl)amino)-5-((4-(imidazo[1,2-b]pyridazine-6-yl)pyrimidin-2-yl)amino)-4-methoxyphenyl)acrylamide], the IC50 in test [1] (setting [3]) was 100 to 400 nM; at EGFR [L858R/T790M], 1 to 50 nM; at WT EGFR, 50 to 100 nM; in test [2], above 1000 nM.

On to `C=CC(=O)Nc1cc(Nc2nccc(-c3cc4c5c(c3)n(C(C)C)c(=O)n5CCC4)n2)c(OC)cc1N(C)CCN(C)C` [Example 44, N-(2-((2-(dimethylamino)ethyl)(methyl)amino)-5-((4-(1-isopropyl-2-oxo-1,2,5,6-tetrahydro-4H-imidazo[4,5,1-ij]quinolin-8-yl)pyrimidin-2-yl)amino)-4-methoxyphenyl)acrylamide], for which the IC50 is below 10 nM in test [1] (setting [3]), below 1 nM at EGFR [L858R/T790M], 1 to 50 nM against WT EGFR and 400 to 1000 nM in test [2].

As for `C=CC(=O)Nc1cc(Nc2nccc(-c3cc4c5c(c3)nc(OC)n5CCC4)n2)c(OC)cc1N(C)CCN(C)C` [Example 45, N-(2-((2-(dimethylamino)ethyl)(methyl)amino)-4-methoxy-5-((4-(2-methoxy-5,6-dihydro-4H-imidazo[4,5,1-ij]quinolin-8-yl)pyrimidin-2-yl)amino)phenyl)acrylamide], the IC50 in test [1] (setting [3]) is 10 to 100 nM; on EGFR [L858R/T790M] it was below 1 nM; against WT EGFR it was 1 to 50 nM; in test [2], 400 to 1000 nM.

For the compound `C=CC(=O)Nc1cc(Nc2nccc(-c3ccc4ncsc4c3)n2)c(OC)cc1N(C)CCN(C)C` [Example 46, N-(5-((4-(benzo[d]thiazol-6-yl)pyrimidin-2-yl)amino)-2-((2-(dimethylamino)ethyl)(methyl)amino)-4-methoxyphenyl)acrylamide], the IC50 in test [1] (setting [3]) was 10 to 100 nM; on EGFR [L858R/T790M], below 1 nM; against WT EGFR it was 1 to 50 nM; in test [2] it was 100 to 400 nM.

Regarding `C=CC(=O)Nc1cc(Nc2nccc(-c3cc(F)c4nc(C)n(C(C)C)c4c3)n2)c(OCC)cc1N(C)CCN(C)C` [Example 48, N-(2-((2-(dimethylamino)ethyl)(methyl)amino)-4-ethoxy-5-((4-(4-fluoro-1-isopropyl-2-methyl-1H-benzo[d]imidazole-6-yl)pyrimidin-2-yl)amino)phenyl)acrylamide], the IC50 was below 10 nM in test [1] (setting [4]), below 1 nM at EGFR [L858R/T790M], 1 to 50 nM against WT EGFR and 400 to 1000 nM in test [2].

Take `C=CC(=O)Nc1cc(Nc2nccc(-c3cc(F)c4nc(C)n(C(C)C)c4c3)n2)c(OCC(F)(F)F)cc1N(C)CCN(C)C` [Example 49, N-(2-((2-(dimethylamino)ethyl)(methyl)amino)-5-((4-(4-fluoro-1-isopropyl-2-methyl-1H-benzo[d]imidazole-6-yl)pyrimidin-2-yl)amino)-4-(2,2,2-trifluoroethoxy)phenyl)acrylamide]: the IC50 in test [1] (setting [4]) is below 10 nM; on EGFR [L858R/T790M], below 1 nM; on WT EGFR, below 1 nM; in test [2], 10 to 100 nM.

With `[2H]C([2H])([2H])c1nc2ccc(-c3ccnc(Nc4cc(NC(=O)C=C)c(N(C)CCN(C)C)cc4OC)n3)cc2n1C(C)C` [Example 50, N-(2-((2-(dimethylamino)ethyl)(methyl)amino)-5-((4-(1-isopropyl-2-(methyl-d3)-1H-benzo[d]imidazole-6-yl)pyrimidin-2-yl)amino)-4-methoxyphenyl)acrylamide], the IC50 lay in the range of 10 to 100 nM in test [1] (setting [3]), 1 to 50 nM on EGFR [L858R/T790M], 1 to 50 nM on WT EGFR and 100 to 400 nM in test [2].

Consider `[2H]C(C)(C)n1c(C)nc2ccc(-c3ccnc(Nc4cc(NC(=O)C=C)c(N(C)CCN(C)C)cc4OC)n3)cc21` [Example 51, N-(2-((2-(dimethylamino)ethyl)(methyl)amino)-4-methoxy-5-((4-(2-methyl-1-(propyl-2-yl-2-d)-1H-benzo[d]imidazole-6-yl)pyrimidin-2-yl)amino)phenyl)acrylamide], for which the IC50 fell in the range of 10 to 100 nM in test [1] (setting [3]), 1 to 50 nM on EGFR [L858R/T790M], 1 to 50 nM on WT EGFR and 100 to 400 nM in test [2].

On to `[2H]C([2H])([2H])C(n1c(C)nc2ccc(-c3ccnc(Nc4cc(NC(=O)C=C)c(N(C)CCN(C)C)cc4OC)n3)cc21)C([2H])([2H])[2H]` [Example 52, N-(2-((2-(dimethylamino)ethyl)(methyl)amino)-4-methoxy-5-((4-(2-methyl-1-(propyl-2-yl-1,1,1,3,3,3-d6)-1H-benzo[d]imidazole-6-yl)pyrimidin-2-yl)amino)phenyl)acrylamide], for which the IC50 in test [1] (setting [3]) is below 10 nM; at EGFR [L858R/T790M] it was below 1 nM; against WT EGFR, 1 to 50 nM; in test [2], 100 to 400 nM.

`C=CC(=O)Nc1cc(Nc2nccc(-c3cc(F)c4nc(C)n(C(C)C)c4c3)n2)c(OC)cc1N(C)CCN(C)C` [Example 53, N-(2-((2-(dimethylamino)ethyl)(methyl)amino)-5-((4-(4-fluoro-1-isopropyl-2-methyl-1H-benzo[d]imidazole-6-yl)pyrimidin-2-yl)amino)-4-methoxyphenyl)acrylamide]: the IC50 was below 10 nM in test [1] (setting [3]), below 1 nM on EGFR [L858R/T790M], 1 to 50 nM at WT EGFR and 400 to 1000 nM in test [2].

As for `COc1cc(N2CCN(C)CC2)ccc1Nc1ncc(F)c(-c2cc(F)c3nc(C)n(C(C)C)c3c2)n1` [Example 55, 5-fluoro-4-(4-fluoro-1-isopropyl-2-methyl-1H-benzo[d]imidazole-6-yl)-N-(2-methoxy-4-(4-methylpiperazin-1-yl)phenyl)pyrimidin-2-amine], the IC50 is 400 to 1000 nM in test [1] (setting [3]), 1 to 50 nM at EGFR [L858R/T790M], 1 to 50 nM against WT EGFR and 400 to 1000 nM in test [2].

With `C=CC(=O)Nc1cc(Nc2ncc(F)c(-c3cc(F)c4nc(C)c(C(=C)C)n4c3)n2)c(OC)cc1N(C)CCN(C)C` [Example 56, N-(2-((2-(dimethylamino)ethyl)(methyl)amino)-5-((5-fluoro-4-(8-fluoro-2-methyl-3-(prop-1-en-2-yl)imidazo[1,2-a]pyridine-6-yl)pyrimidin-2-yl)amino)-4-methoxyphenyl)acrylamide], the IC50 was 10 to 100 nM in test [1] (setting [3]), 1 to 50 nM at EGFR [L858R/T790M], 1 to 50 nM on WT EGFR and above 1000 nM in test [2].

For the compound `C=C(C)c1c(C)nc2c(F)cc(-c3nc(Nc4ccc(N5CCN(C)CC5)cc4OC)ncc3F)cn12` [Example 57, 5-fluoro-4-(8-fluoro-2-methyl-3-(prop-1-en-2-yl)imidazo[1,2-a]pyridine-6-yl)-N-(2-methoxy-4-(4-methylpiperazin-1-yl)phenyl)pyrimidin-2-amine], the IC50 was above 1000 nM in test [1] (setting [3]), 1 to 50 nM on EGFR [L858R/T790M], above 100 nM against WT EGFR and above 1000 nM in test [2].

On to `COc1cc(N2CCN(C)CC2)ccc1Nc1ncc(F)c(-c2cc(F)c3nc(C)cn3c2)n1` [Example 58, 5-fluoro-4-(8-fluoro-2-methylimidazo[1,2-a]pyridine-6-yl)-N-(2-methoxy-4-(4-methylpiperazin-1-yl)phenyl)pyrimidin-2-amine], for which the IC50 in test [1] (setting [3]) is above 1000 nM; on EGFR [L858R/T790M], above 100 nM; at WT EGFR, above 100 nM; in test [2], above 1000 nM.

As for `COc1cc(N2CCN(C)CC2)ccc1Nc1ncc(F)c(-c2cc(F)c3nc(C)c(C(C)C)n3c2)n1` [Example 59, 5-fluoro-4-(8-fluoro-3-isopropyl-2-methylimidazo[1,2-a]pyridine-6-yl)-N-(2-methoxy-4-(4-methylpiperazin-1-yl)phenyl)pyrimidin-2-amine], the IC50 in test [1] (setting [3]) was above 1000 nM; at EGFR [L858R/T790M], 50 to 100 nM; on WT EGFR, above 100 nM; in test [2] it was above 1000 nM.

In the case of `C=CC(=O)Nc1cc(Nc2nccc(-c3cc(F)c4nc(C(F)F)n(C(C)C)c4c3)n2)c(OC)cc1N(C)CCN(C)C` [Example 60, N-(5-((4-(2-(difluoromethyl)-4-fluoro-1-isopropyl-1H-benzo[d]imidazol-6-yl)pyrimidin-2-yl)amino)-2-((2-(dimethylamino)ethyl)(methyl)amino)-4-methoxyphenyl)acrylamide], the IC50 in test [1] (setting [3]) is 10 to 100 nM; at EGFR [L858R/T790M] it was below 1 nM; at WT EGFR it was 1 to 50 nM; in test [2], 400 to 1000 nM.

Regarding `C=CC(=O)Nc1cc(Nc2nccc(-c3cc(F)c4nc(OC(C)C)n(C(C)C)c4c3)n2)c(OC)cc1N(C)CCN(C)C` [Example 61, N-(2-((2-(dimethylamino)ethyl)(methyl)amino)-5-((4-(4-fluoro-2-isopropoxy-1-isopropyl-1H-benzo[d]imidazol-6-yl)pyrimidin-2-yl)amino)-4-methoxyphenyl)acrylamide], the IC50 was in the range of 10 to 100 nM in test [1] (setting [3]), 1 to 50 nM on EGFR [L858R/T790M], 1 to 50 nM against WT EGFR and 100 to 400 nM in test [2].
